# Reference: patent US9801953B2, “Nanoparticles carrying nucleic acid cassettes for expressing RNA” (EMORY UNIVERSITY, priority 2012, dated 2017)
# What was measured:
# [1] = tested on: MIA PaCa-2 cells; assay: Crystal violet cell proliferation assay; format: cell-based; conditions: Homo sapiens
# Excerpt: Survivin is an anti-cell death gene that confers resistance of cancer cells to therapeutic agents. […] However, SV40-NLS-QD-siRNA nanocassettes could not be used for in vivo delivery due to the lack of specificity. Inhibition of survivin expression led to the activation of the apoptotic cell death since a high level of active caspase 3 (17 KDa fragments) was detected in those cell groups by Western blot analysis (FIG. 6B). Targeted internalization of hATF QD-survivin siRNA expressing nanocassettes were further confirmed in the MIA PaCa-2 cell line (FIG. 6C).
# The effect of survivin gene silencing using hATF-QD-Survivin siRNA expressing nanocassettes was examined on cell sensitivity to chemotherapy drugs. […] Pancreatic cancer cells have a low sensitivity to free gemcitabine treatment and 60% of viable cells were detected by cell proliferation assay 72 h following 100 μM of gemcitabine treatment (FIG. 7A).
# Crystal violet assay was used to determine the percentage of viable cells. […] Percentage of viable cells in the experimental groups was determined by measurements O.D. at 590 nm using Spectra Max Plus (Molecular Devices, Sunnyvale, Calif.). […] Cell lysates were analyzed for their levels of caspase 3-like activity, which is generated by caspases 3, 7, and 10, using an Ac-DEVD-AFC substrate (Calbiochem, San Diego, Calif.). […]
# [2] = tested on: MCF-10DCIS human breast cancer cells; assay: Target specificity / intracellular delivery of nanoparticles, fluorescence microscopy; format: cell-based; conditions: 15 pmol of QDs, 24 h
# Protocol: (§1) To further quantify gene silencing efficiency in tumor cells in vitro and the detection of dynamic changes in the inhibition of gene expression in animal tumor models in vivo using bioluminescence imaging, U6-luciferase (Luc) siRNA expressing nanocassettes from p-Silencer-firefly luciferase shRNA plasmid were amplified. […] The inhibitory effect was enhanced as the copy number of Luc siRNA nanocassettes on each QD increased from 2 to 10 or 20 (FIG. 4B).
# Cells were plated in 24-well culture plates for 24 h and then incubated with various nanoparticles at an equal molar concentration (15 pmol of QDs) for 24 h. Control unconjugated DNA cassettes or plasmids were transfected into cells. As a delivery efficiency control, siRNA expressing nanocassettes were also conjugated to QDs with the NLS peptides from SV40 virus, CGGGPKKKRKVE (SEQ ID NO: 10). The peptide sequence was provided by Dr. Steven Dowdy at University of California, San Diego. The SV-40-NLS peptides were synthesized by Genscript USA Inc. (Piscataway, N.J.). Culture plates were then examined using an inverted Olympus fluorescence microscope.
# [3] = mouse, in vivo
# Protocol: The tumor bearing mice then received 200 pmol of QDs carrying luciferase siRNA-expressing DNA cassettes (about 2 nmol of DNA cassettes) by tail vein injection. Before and at different time points following the nanoparticle administration, 2 mg/Kg of luciferin substrate was injected intraperitoneally into the mice for 5 min before each bioluminescence imaging procedure using identical imaging conditions and an Olympus OV-100 small animal imaging system (Olympus America Inc.).
# [4] = tested on: luciferase positive MCF-10DCIS tumors; assay: Bioluminescence imaging of gene silencing in orthotopic breast cancer xenografts; format: in vivo, nude mice
# Protocol: One of the major obstacles in applying siRNA technology to cancer therapy is the low delivery and gene silencing efficiencies in the tumor following systemic administration. To determine the gene silencing efficiency of uPAR-targeted siRNA expressing nanocassettes, hATF-QD-Luc siRNA nanocassettes were injected via the tail vein into nude mice bearing orthotopic luciferase positive MCF-10DCIS tumors. Non-invasive bioluminescence imaging was used at different time points to determine changes in the luciferase activity in the tumors. Twenty-four hours after the injection, the level of luciferase activity decreased by 42% in the mice that received hATF-QD-Luc siRNA nanocassettes.
# To determine whether the changes in luciferase activity in the tumor were the result of specific silencing of the luciferase gene, mice bearing MCF-10DCIS tumors in the low abdominal mammary gland received a tail vein injection of either hATF-QD-Luc siRNA or hATF-QD-control siRNA nanocassettes. […] Therefore, the effect of down regulation of luciferase gene expression is likely due to the targeted delivery of luciferase siRNA-expressing nanocassettes into the tumor.
# [5] = tested on: firefly luciferase gene stably transfected human breast cancer MCF-10DCIS cell; assay: Luciferase activity assay in cell lysates; format: cell-based; conditions: MCF-10DCIS cell lysates, 24 h after nanoparticle incubation
# Excerpt: as §1
# Following different treatments, cells were collected from culture plates. Cell lysates were examined for luciferase activity using the Single Luciferase Assay System (Promega Corp., Madison, Wis.). The level of the luciferase activity was measured by a luminometer (Lumistar galaxy, BMG, Winooski, VM) for single samples or using the Xenogen IVIS system (Caliper Life Sciences, Mountain View, Calif.) for 96-well plates.
Compound,"viability at 1 µM ([1]; 1 μM gemcitabine, free drug treated group, read-out: percentage of viable cells) [%]","viability at 100 µM ([1]; 100 μM gemcitabine, 72 h, read-out: viable cells) [%]",entry into cells (intracellular delivery efficiency) [2],levels of QD accumulation in the liver and spleen [3],"decrease in level of luciferase activity in tumor ([4]; 24 h after tail vein injection, 200 pmol QDs) [%]",inhibitory effect on luciferase activity in tumor ([4]; 72 h after injection),"decrease in luciferase activity in the tumor ([4]; 72 h after injection, specificity experiment (FIG. 5C)) [%]",luciferase activity in tumor versus pre-injection ([4]; 140 h after injection),inhibitory effect on luciferase activity in the tumor ([4]; 144 h after injection (FIG. 5C)),duration of inhibitory effect on luciferase activity ([4]; after tail vein injection),luciferase activity [5]
Nc1ccn([C@@H]2O[C@H](CO)[C@@H](O)C2(F)F)c(=O)n1 [gemcitabine],94,60,–,–,–,–,–,–,–,–,–
hATF-QD-Luc siRNA nanocassettes: U6-luciferase siRNA expressing DNA nanocassettes conjugated to QDs with human ATF targeting ligands,–,–,could efficiently enter,markedly decreased,42,further enhanced,> 90,returned to the pre-injection level,still strong,over 120 h,decrease in luciferase activity
